This experiment has as its system MV-4-11 cells. Description: Gene expression microarray analysis (Affymetrix PrimeView) and GSEA. The conditions noted are these: ProbeSet 11727641_at; LIST B. Format: cell-based, human. Also on record: RFU PODN (11730768_x_at) / Fold change /veh PODN (11730768_x_at) / RFU LINC00158 (11744669_a_at) / Fold change /veh LINC00158 (11744669_a_at) / RFU DUSP10 (11751237_a_at) / Fold change /veh DUSP10 (11751237_a_at) / RFU ID3 (11757404_x_at) / Fold change /veh ID3 (11757404_x_at) / RFU PLEKHG5 (11737974_s_at) / Fold change /veh PLEKHG5 (11737974_s_at) / RFU LRRC4B (11730491_at) / Fold change /veh LRRC4B (11730491_at) / RFU GIMAP4 (11747438_a_at) / Fold change /veh GIMAP4 (11747438_a_at) / RFU KRT8 (11758183_x_at) / Fold change /veh KRT8 (11758183_x_at) / RFU CNN1 (11734310_a_at) / Fold change /veh CNN1 (11734310_a_at) / RFU VPS37D (11726825_at) / Fold change /veh VPS37D (11726825_at) / RFU C10orf10 (11716522_x_at) / Fold change /veh C10orf10 (11716522_x_at) / RFU KIR2DL2 /// KIR2DL4 /// KIR2DL5A /// KIR2DL5B /// KIR2DS1 /// KIR2DS2 /// KIR2DS3 /// KIR2DS4 /// KIR3DL3 /// KIR3DL3 /// KIR3DS1 (11738374_at) / Fold change /veh KIR2DL2 /// KIR2DL4 /// KIR2DL5A /// KIR2DL5B /// KIR2DS1 /// KIR2DS2 /// KIR2DS3 /// KIR2DS4 /// KIR3DL3 /// KIR3DL3 /// KIR3DS1 (11738374_at) / RFU C1QL1 (11718748_at) / Fold change /veh C1QL1 (11718748_at) / RFU TMPRSS4 (11747572_a_at) / Fold change /veh TMPRSS4 (11747572_a_at) / RFU HAMP (11756126_x_at) / Fold change /veh HAMP (11756126_x_at) / RFU RNFT2 (11725882_a_at) / Fold change /veh RNFT2 (11725882_a_at) / RFU NR4A2 (11747474_a_at) / Fold change /veh NR4A2 (11747474_a_at) / RFU ABCC12 (11746883_a_at) / Fold change /veh ABCC12 (11746883_a_at) / RFU TMEM136 (11760407_x_at) / Fold change /veh TMEM136 (11760407_x_at) / RFU CLDN22 /// WWC2 (11732394_at) / Fold change /veh CLDN22 /// WWC2 (11732394_at) / RFU HLA-DPB1 (11760878_x_at) / Fold change /veh HLA-DPB1 (11760878_x_at) / RFU SPINT1 (11716480_a_at) / Fold change /veh SPINT1 (11716480_a_at) / RFU GAP43 (11754022_s_at) / Fold change /veh GAP43 (11754022_s_at) / RFU A4GNT (11735810_at) / Fold change /veh A4GNT (11735810_at) / RFU PRB3 (11715151_x_at) / Fold change /veh PRB3 (11715151_x_at) / RFU TUBB4B (11761932_at) / Fold change /veh TUBB4B (11761932_at) / RFU CAPN14 (11732068_a_at) / Fold change /veh CAPN14 (11732068_a_at) / RFU TMCC2 (11721928_a_at) / Fold change /veh TMCC2 (11721928_a_at) / RFU IRGQ (11745062_a_at) / Fold change /veh IRGQ (11745062_a_at) / RFU FAM174B (11720279_a_at) / Fold change /veh FAM174B (11720279_a_at) / RFU TMPRSS4 (11748680_a_at) / Fold change /veh TMPRSS4 (11748680_a_at) / RFU FAM212B (11763350_a_at) / Fold change /veh FAM212B (11763350_a_at) / RFU PLEKHG5 (11743358_a_at) / Fold change /veh PLEKHG5 (11743358_a_at) / RFU ZSCAN30 (11745921_a_at) / Fold change /veh ZSCAN30 (11745921_a_at) / RFU CMKLR1 (11741424_a_at) / Fold change /veh CMKLR1 (11741424_a_at) / RFU LOC101060620 /// MAPK8IP1 (11723275_at) / Fold change /veh LOC101060620 /// MAPK8IP1 (11723275_at) / RFU SPTSSB (11747773_x_at) / Fold change /veh SPTSSB (11747773_x_at) / RFU PRSS12 (11739890_at) / Fold change /veh PRSS12 (11739890_at) / RFU BIN1 (11741810_x_at) / Fold change /veh BIN1 (11741810_x_at) / RFU WNT11 (11732464_a_at) / Fold change /veh WNT11 (11732464_a_at) / RFU C10orf10 (11716521_a_at) / Fold change /veh C10orf10 (11716521_a_at) / RFU C5orf56 (11738089_at) / Fold change /veh C5orf56 (11738089_at) / RFU CYB561 (11721691_x_at) / Fold change /veh CYB561 (11721691_x_at) / RFU ANKRD19P (11752326_a_at) / Fold change /veh ANKRD19P (11752326_a_at) / RFU OR2T12 /// OR2T33 /// OR2T8 (11738714_s_at) / Fold change /veh OR2T12 /// OR2T33 /// OR2T8 (11738714_s_at) / RFU VCAN (11748164_a_at) / Fold change /veh VCAN (11748164_a_at) / RFU JSRP1 (11732532_at) / Fold change /veh JSRP1 (11732532_at) / RFU KRTAP10-11 (11738290_x_at) / Fold change /veh KRTAP10-11 (11738290_x_at) / RFU MYO3A (11730013_a_at) / Fold change /veh MYO3A (11730013_a_at) / RFU EBF3 (11725865_a_at) / Fold change /veh EBF3 (11725865_a_at) / RFU CAMK2N1 (11719241_x_at) / Fold change /veh CAMK2N1 (11719241_x_at) / RFU C5orf56 (11738088_a_at) / Fold change /veh C5orf56 (11738088_a_at) / RFU OLFML3 (11715873_a_at) / Fold change /veh OLFML3 (11715873_a_at) / RFU LOC100653217 /// NTM (11731650_a_at) / Fold change /veh LOC100653217 /// NTM (11731650_a_at) / RFU MAPK11 (11762145_a_at) / Fold change /veh MAPK11 (11762145_a_at) / RFU FIZ1 (11724087_x_at) / Fold change /veh FIZ1 (11724087_x_at) / RFU OASL (11726364_x_at) / Fold change /veh OASL (11726364_x_at) / RFU SOX15 (11748057_x_at) / Fold change /veh SOX15 (11748057_x_at) / RFU CD79A (11719716_a_at) / Fold change /veh CD79A (11719716_a_at) / RFU HIST1H1D (11736915_at) / Fold change /veh HIST1H1D (11736915_at) / RFU CASKIN2 (11723855_a_at) / Fold change /veh CASKIN2 (11723855_a_at) / RFU LOC730098 (11760151_x_at) / Fold change /veh LOC730098 (11760151_x_at) / RFU OR4N2 (11742367_at) / Fold change /veh OR4N2 (11742367_at) / RFU PRRT2 (11749266_a_at) / Fold change /veh PRRT2 (11749266_a_at) / RFU SNX32 (11753110_a_at) / Fold change /veh SNX32 (11753110_a_at) / RFU CDHR5 (11726645_a_at) / Fold change /veh CDHR5 (11726645_a_at) / RFU RCAN1 (11760418_a_at) / Fold change /veh RCAN1 (11760418_a_at) / RFU FAM167A (11723789_a_at) / Fold change /veh FAM167A (11723789_a_at) / RFU FAM26E (11764081_at) / Fold change /veh FAM26E (11764081_at) / RFU ISYNA1 (11749810_s_at) / Fold change /veh ISYNA1 (11749810_s_at) / RFU ACY1 (11761880_at) / Fold change /veh ACY1 (11761880_at) / RFU 11764098_at / Fold change /veh 11764098_at / RFU SAMD14 (11745864_x_at) / Fold change /veh SAMD14 (11745864_x_at) / RFU NPB (11741838_a_at) / Fold change /veh NPB (11741838_a_at) / RFU TMPRSS6 (11731388_a_at) / Fold change /veh TMPRSS6 (11731388_a_at) / RFU KRTAP10-2 (11738614_at) / Fold change /veh KRTAP10-2 (11738614_at) / RFU ARHGAP8 /// PRR5-ARHGAP8 (11727945_x_at) / Fold change /veh ARHGAP8 /// PRR5-ARHGAP8 (11727945_x_at) / RFU KRTAP5-7 /// NADSYN1 (11734609_at) / Fold change /veh KRTAP5-7 /// NADSYN1 (11734609_at) / RFU RASL12 (11751679_a_at) / Fold change /veh RASL12 (11751679_a_at) / RFU CDKN2B (11736163_a_at) / Fold change /veh CDKN2B (11736163_a_at) / RFU PRF1 (11729649_at) / Fold change /veh PRF1 (11729649_at) / RFU, ZNF638 /// ZNF638-IT1 / Fold change vs veh, ZNF638 /// ZNF638-IT1 / RFU, PANK3 / Fold change vs veh, PANK3 / RFU, SH3YL1 / Fold change vs veh, SH3YL1 / RFU, ZEB2 / Fold change vs veh, ZEB2 / RFU, NRIP1 / Fold change vs veh, NRIP1 / RFU, PTTG1IP / Fold change vs veh, PTTG1IP / RFU, CAPN2 / Fold change vs veh, CAPN2 / RFU, MED14 / Fold change vs veh, MED14 / RFU, SNORA58 / Fold change vs veh, SNORA58 / RFU, C1orf63 / Fold change vs veh, C1orf63 / RFU, LRRFIP1 / Fold change vs veh, LRRFIP1 / RFU, NDUFAF7 / Fold change vs veh, NDUFAF7 / RFU, SLC12A2 / Fold change vs veh, SLC12A2 / RFU, IBTK / Fold change vs veh, IBTK / RFU, ESF1 / Fold change vs veh, ESF1 / Fold change vs veh, TMEM50B / RFU, TAOK1 / Fold change vs veh, TAOK1 / RFU, ACBD3 / Fold change vs veh, ACBD3 / RFU, TMA16 / Fold change vs veh, TMA16 / RFU, RWDD3 / Fold change vs veh, RWDD3 / RFU, BCAT1 / Fold change vs veh, BCAT1 / RFU, EDEM3 / Fold change vs veh, EDEM3 / RFU, TMEM33 / Fold change vs veh, TMEM33 / RFU, WDR75 / Fold change vs veh, WDR75 / RFU, AHCTF1 / Fold change vs veh, AHCTF1 / RFU, TFRC / Fold change vs veh, TFRC / RFU, ZDHHC17 / Fold change vs veh, ZDHHC17 / RFU, NOM1 / Fold change vs veh, NOM1 / RFU, ARL8B / Fold change vs veh, ARL8B / RFU, ZBTB11 / Fold change vs veh, ZBTB11 / RFU, TAMM41 / Fold change vs veh, TAMM41 / RFU, KIAA1704 /// LOC100996395 / Fold change vs veh, KIAA1704 /// LOC100996395 / RFU, ING1 / Fold change vs veh, ING1 / RFU, TRMT61B / Fold change vs veh, TRMT61B / RFU, FUBP3 / Fold change vs veh, FUBP3 / RFU, TP53 / Fold change vs veh, TP53 / RFU, TNKS2 / Fold change vs veh, TNKS2 / RFU, ZFP14 / Fold change vs veh, ZFP14 / RFU, ACTR2 / Fold change vs veh, ACTR2 / RFU, PPP3R1 / Fold change vs veh, PPP3R1 / RFU, PIK3R1 / Fold change vs veh, PIK3R1 / RFU, HNRNPA1 / Fold change vs veh, HNRNPA1 / RFU, RNF170 / Fold change vs veh, RNF170 / RFU, ZNF28 / Fold change vs veh, ZNF28 / RFU, RNGTT / Fold change vs veh, RNGTT / RFU, OGT / Fold change vs veh, OGT / RFU, BRD1 / Fold change vs veh, BRD1 / RFU, MARS / Fold change vs veh, MARS / RFU, ZNF655 / Fold change vs veh, ZNF655 / RFU, FAHD1 / Fold change vs veh, FAHD1 / RFU, BDP1 / Fold change vs veh, BDP1 / RFU, LRRCC1 / Fold change vs veh, LRRCC1 / RFU, ARID1A / Fold change vs veh, ARID1A / RFU, ZNF146 / Fold change vs veh, ZNF146 / RFU, ZNF330 / Fold change vs veh, ZNF330 / RFU, GPN3 / Fold change vs veh, GPN3 / RFU, C9orf123 / Fold change vs veh, C9orf123 / RFU, N4BP2L2 / Fold change vs veh, N4BP2L2 / RFU, ARFIP1 / Fold change vs veh, ARFIP1 / RFU, FAM179B / Fold change vs veh, FAM179B / RFU, BCL10 / Fold change vs veh, BCL10 / RFU, UHRF1BP1L / Fold change vs veh, UHRF1BP1L / RFU, BET1 / Fold change vs veh, BET1 / RFU, CNOT2 / Fold change vs veh, CNOT2 / RFU, ZNF268 / Fold change vs veh, ZNF268 / Fold change vs veh, ZNF507 / RFU, DGCR2 / Fold change vs veh, DGCR2 / RFU, WDSUB1 / Fold change vs veh, WDSUB1 / Fold change vs veh, HSP90B1 /// MIR3652 / RFU, ADSS / Fold change vs veh, ADSS / RFU, GK / Fold change vs veh, GK / RFU, ZNF148 / Fold change vs veh, ZNF148 / RFU, TAF9 / Fold change vs veh, TAF9 / RFU, SLC1A5 / Fold change vs veh, SLC1A5 / RFU, SLMO2 / Fold change vs veh, SLMO2 / RFU, ABCC4 / Fold change vs veh, ABCC4 / RFU, LOC101060439 /// RAP1B / Fold change vs veh, LOC101060439 /// RAP1B / RFU, RFX7 / Fold change vs veh, RFX7 / RFU, GTPBP10 / Fold change vs veh, GTPBP10 / RFU, CNEP1R1 / Fold change vs veh, CNEP1R1 / RFU, BIVM-ERCC5 /// ERCC5 / Fold change vs veh, BIVM-ERCC5 /// ERCC5 / RFU, ILF3 / Fold change vs veh, ILF3 / RFU 11762660_at / Fold change /veh 11762660_at / RFU VCAN (11757783_s_at) / Fold change /veh VCAN (11757783_s_at) / RFU DDX43 (11728927_at) / Fold change /veh DDX43 (11728927_at) / RFU KRT8 (11758188_x_at) / Fold change /veh KRT8 (11758188_x_at) / RFU NKD1 (11759106_at) / Fold change /veh NKD1 (11759106_at) / RFU SRD5A1 (11742802_a_at) / Fold change /veh SRD5A1 (11742802_a_at) / RFU TPSAB1 /// TPSB2 (11721975_s_at) / Fold change /veh TPSAB1 /// TPSB2 (11721975_s_at) / RFU GSTM3 (11746129_a_at) / Fold change /veh GSTM3 (11746129_a_at) / RFU IL23R (11737362_x_at) / Fold change /veh IL23R (11737362_x_at) / RFU TMEM51 (11727254_a_at) / Fold change /veh TMEM51 (11727254_a_at) / RFU PIWIL2 (11732686_x_at) / Fold change /veh PIWIL2 (11732686_x_at) / RFU ORM1 (11744905_x_at) / Fold change /veh ORM1 (11744905_x_at) / RFU CCDC152 (11743942_at) / Fold change /veh CCDC152 (11743942_at) / RFU ECM1 (11717891_a_at) / Fold change /veh ECM1 (11717891_a_at) / RFU IL23R (11748794_a_at) / Fold change /veh IL23R (11748794_a_at) / RFU TNFAIP8L3 (11732012_x_at) / Fold change /veh TNFAIP8L3 (11732012_x_at) / RFU MBOAT4 (11741988_at) / Fold change /veh MBOAT4 (11741988_at) / RFU 11764193_at / Fold change /veh 11764193_at / RFU TMEM53 (11763286_at) / Fold change /veh TMEM53 (11763286_at) / RFU MAGEB2 (11727129_at) / Fold change /veh MAGEB2 (11727129_at) / RFU TMEM200A (11744735_a_at) / Fold change /veh TMEM200A (11744735_a_at) / RFU CCDC152 (11751479_a_at) / Fold change /veh CCDC152 (11751479_a_at) / RFU FAM211A (11726209_a_at) / Fold change /veh FAM211A (11726209_a_at) / RFU RGS16 (11746705_a_at) / Fold change /veh RGS16 (11746705_a_at) / RFU VCAN (11755009_s_at) / Fold change /veh VCAN (11755009_s_at) / RFU RHOB (11743442_s_at) / Fold change /veh RHOB (11743442_s_at) / RFU RGS16 (11720943_a_at) / Fold change /veh RGS16 (11720943_a_at) / RFU RGS16 (11720944_at) / Fold change /veh RGS16 (11720944_at) / RFU, VPS4B / Fold change vs veh, VPS4B / RFU, CREB1 / Fold change vs veh, CREB1 / RFU, DNAJC13 / Fold change vs veh, DNAJC13 / RFU, GNAQ / Fold change vs veh, GNAQ / RFU, CDK5R1 / Fold change vs veh, CDK5R1 / RFU, ZRANB3 / Fold change vs veh, ZRANB3 / RFU, CUL4A / Fold change vs veh, CUL4A / RFU, CCNY / Fold change vs veh, CCNY / RFU, UFL1 / Fold change vs veh, UFL1 / RFU, COG3 / Fold change vs veh, COG3 / RFU, DIAPH2 / Fold change vs veh, DIAPH2 / RFU, SKA2 / Fold change vs veh, SKA2 / RFU, AFF3 / Fold change vs veh, AFF3 / RFU, LMF1 / Fold change vs veh, LMF1 / RFU, IPO11 / Fold change vs veh, IPO11 / RFU, DFFB / Fold change vs veh, DFFB / RFU, FOXP1 / Fold change vs veh, FOXP1 / RFU, CARD8 / Fold change vs veh, CARD8 / RFU, STRN3 / Fold change vs veh, STRN3 / RFU, ADK / Fold change vs veh, ADK / RFU, RASSF2 / Fold change vs veh, RASSF2 / RFU, WIPF1 / Fold change vs veh, WIPF1 / RFU, LARP1B / Fold change vs veh, LARP1B / RFU, RASA1 / Fold change vs veh, RASA1 / RFU, RB1 / Fold change vs veh, RB1 / RFU, PPFIA1 / Fold change vs veh, PPFIA1 / RFU, MAT2A / Fold change vs veh, MAT2A / RFU, CCT5 / Fold change vs veh, CCT5 / RFU, WDR92 / Fold change vs veh, WDR92 / RFU, CUX1 / Fold change vs veh, CUX1 / RFU, TTC7A / Fold change vs veh, TTC7A / RFU, TMEM135 / Fold change vs veh, TMEM135 / RFU, DEPTOR / Fold change vs veh, DEPTOR / RFU, CPM / Fold change vs veh, CPM / RFU, DNAJB6 / Fold change vs veh, DNAJB6 / RFU, CACNA2D3 / Fold change vs veh, CACNA2D3 / RFU, DTX4 / Fold change vs veh, DTX4 / RFU, TFCP2 / Fold change vs veh, TFCP2 / RFU, GMCL1 /// GMCL1P1 / Fold change vs veh, GMCL1 /// GMCL1P1 / RFU, AEBP2 / Fold change vs veh, AEBP2 / RFU, SNHG1 /// SNORD22 /// SNORD25 /// SNORD26 /// SNORD27 /// SNORD28 /// SNORD29 /// SNORD31 / Fold change vs veh, SNHG1 /// SNORD22 /// SNORD25 /// SNORD26 /// SNORD27 /// SNORD28 /// SNORD29 /// SNORD31 / Fold change (Aza/veh), C12orf56 (ProbeSet 11735607_a_at) / Fold change (ACY-1035/veh), C12orf56 (ProbeSet 11735607_a_at) / Fold change (Aza/veh), FGFR1OP (ProbeSet 11751329_s_at) / Fold change (ACY-1035/veh), FGFR1OP (ProbeSet 11751329_s_at) / Fold change (Aza/veh), VPS36 (ProbeSet 11739960_a_at) / Fold change (ACY-1035/veh), VPS36 (ProbeSet 11739960_a_at) / RFU SYPL1 (11715823_x_at) / Fold change /veh SYPL1 (11715823_x_at) / RFU IGFBP7 (11715501_s_at) / Fold change /veh IGFBP7 (11715501_s_at) / RFU REEP3 (11722064_at) / Fold change /veh REEP3 (11722064_at) / RFU IGLL1 (11728026_x_at) / Fold change /veh IGLL1 (11728026_x_at): dose or concentration left out as unconfirmed.

Results on 1 compound are retold here after paper PMC5218480 (PLoS ONE, 2017).

Each structure is given as a SMILES string.

On to `Nc1ccc(-c2cccs2)cc1NC(=O)c1ccc2c(c1)cc(C1CC1)n2CCN1CCOCC1` [ACY-1035], for which the “Fold change vs veh, NOM1” value was determined as 0.95.
